From US20020132776A1, “Inhibitors of transglutaminase” (N-Zyme Biotech GmbH, priority 2000, published 2002)
Where a SMILES comes first, the peptide text is derived from it. The star is where a group is joined. Cbz = O=C(OCc1ccccc1)*; ClAc = O=C(CCl)*; For = O=C*

Tests used:
Format in all cases: biochemical
[1] = target: T1, guinea pig liver transglutaminase (Cavia cutleri, UniProt P08587); assay: Inhibition of tissue transglutaminase, hydroxamate assay (Example 29); conditions: 20 min preincubation at 37° C., first block r5-r22
T1 sequence (P08587 1-690): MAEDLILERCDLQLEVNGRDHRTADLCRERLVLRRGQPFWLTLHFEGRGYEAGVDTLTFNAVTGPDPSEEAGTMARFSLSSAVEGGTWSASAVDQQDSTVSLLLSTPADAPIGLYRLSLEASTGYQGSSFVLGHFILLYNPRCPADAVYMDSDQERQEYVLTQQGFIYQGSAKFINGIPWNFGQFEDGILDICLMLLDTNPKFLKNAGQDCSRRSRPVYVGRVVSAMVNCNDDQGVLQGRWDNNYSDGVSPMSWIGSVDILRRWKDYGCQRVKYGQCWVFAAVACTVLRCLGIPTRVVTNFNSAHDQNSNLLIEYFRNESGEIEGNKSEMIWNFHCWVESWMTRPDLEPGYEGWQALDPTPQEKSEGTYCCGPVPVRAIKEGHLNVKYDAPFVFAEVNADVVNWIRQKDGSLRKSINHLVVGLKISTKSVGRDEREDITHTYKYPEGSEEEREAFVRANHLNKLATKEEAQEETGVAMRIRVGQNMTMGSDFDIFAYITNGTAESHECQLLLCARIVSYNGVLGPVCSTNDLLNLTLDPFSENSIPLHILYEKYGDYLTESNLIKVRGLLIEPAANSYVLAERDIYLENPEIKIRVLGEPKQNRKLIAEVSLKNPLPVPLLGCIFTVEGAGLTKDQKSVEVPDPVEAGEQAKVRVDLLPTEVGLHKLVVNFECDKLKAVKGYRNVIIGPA
Description: The inhibitors are dissolved in dimethyl sulfoxide (DMSO) at a concentration of 100 mM. Solutions having a concentration of 10 mM, 1 mM and 0.1 mM are prepared by dilution with transglutaminase buffer (50 mM Tris-HCl, pH 7.0, 5 mM CaCl2, 2 mM DTT).
Afterwards, inhibition takes place by incubation (20 minutes at 37° C.) of 25 μL of a transglutaminase solution (bacterial transglutaminase or guinea pig liver transglutaminase, respectively) with 25 μL of the respective inhibitor solution. Immediately after the incubation has finished, 100 μL of substrate solution (0.1 mM hydroxylamine, 30 mM CBZ-Gln-Gly-OH, 2 mM DTT, 5 mM CaCl2 in 50 mM Tris-HCl, pH 7.0) are added and it is incubated for 10 minutes at 37° C. The reaction is stopped with 100 μL of a solution of 4% (w/v) HCl, 1.7% (w/v) FeCl3 and 4% (w/v) trichloroacetic acid [see Grossowicz et al., J. Biol. Chem. 187, 111-125, 1950]. After centrifugation (10 minutes, 10,000× g) the extinction of the supernatant solution at 492 nm in the microtiter plate reader and, thus, the remaining activity of the transglutaminase is determined.

factor XIIIa = target: T2, factor XIIIa (Homo sapiens, UniProt P00488); assay: Factor XIIIa fibrin coagulation/crosslinking inhibitor test (Example 31); conditions: inhibitor concentration range 0 to 10 μm; absorption of clots at 405 nm
T2 sequence (P00488 39-732 limits assumed): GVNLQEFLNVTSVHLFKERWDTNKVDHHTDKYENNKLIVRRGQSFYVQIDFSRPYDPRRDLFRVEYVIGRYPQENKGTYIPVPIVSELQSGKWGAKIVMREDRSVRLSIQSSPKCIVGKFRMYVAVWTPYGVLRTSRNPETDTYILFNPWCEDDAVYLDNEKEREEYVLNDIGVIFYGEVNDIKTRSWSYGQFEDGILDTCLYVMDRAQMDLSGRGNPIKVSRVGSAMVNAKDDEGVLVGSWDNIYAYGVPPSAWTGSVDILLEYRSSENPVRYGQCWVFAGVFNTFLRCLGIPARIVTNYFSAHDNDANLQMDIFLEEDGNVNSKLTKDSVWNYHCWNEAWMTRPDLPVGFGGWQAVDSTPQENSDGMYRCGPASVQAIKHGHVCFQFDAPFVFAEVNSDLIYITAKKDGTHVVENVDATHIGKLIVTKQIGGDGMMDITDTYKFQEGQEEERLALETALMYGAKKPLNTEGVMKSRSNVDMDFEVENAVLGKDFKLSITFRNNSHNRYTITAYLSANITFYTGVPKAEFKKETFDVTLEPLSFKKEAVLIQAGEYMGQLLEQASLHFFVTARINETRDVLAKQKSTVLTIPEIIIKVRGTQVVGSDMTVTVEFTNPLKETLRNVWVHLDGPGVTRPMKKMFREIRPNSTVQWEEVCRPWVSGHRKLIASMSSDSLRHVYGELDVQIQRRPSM
Description: The inhibitor tests were carried out in microtiter plates (0.2 ml). This entailed examination of the ability of the plasma transglutaminase to catalyze the coagulation of fibrin with and without inhibitor [modified method of Tymiak et al., J. Antibiot., 46, 204-206 (1993)].
40 μl of bovine fibrinogen (3 mg/ml, Sigma) in 25 mm Tris-HCl with 100 mm NaCl and 2.5 mm Ca^2+, pH 7.5, were incubated with 2 U/ml bovine thrombin (Sigma) at 25° C. for 10 min.
In a second mixture in parallel therewith, likewise 2 U/ml bovine thrombin (Sigma) were added to 20 μg/ml FXIII in 25 mm Tris-HCl with 100 mm NaCl and 2.5 mm Ca^2+, pH 7.5, and incubated at 25° C. for 10 min. The γ-aldehyde inhibitor concentration was then adjusted so that the measurements covered a concentration range from 0 to 10 μm. The reaction mixture was incubated at 25° C. for 15 min.
The two mixtures were combined and, after an incubation at 30° C. for 15 min, 150 μl of urea (8 M) were added. The absorption of the clots was measured at 405 nm.

[2] = target: T1, guinea pig liver transglutaminase; assay: Guinea pig liver transglutaminase, incorporation of hydroxylamine into CBZ-Gln-Gly (Example 31); conditions: 0-10 μM inhibitor, 15 min at 25° C.
Description: The inhibitor tests were carried out in analogy to the factor XIII test in microtiter plates. In this case, the incorporation of hydroxylamine into carbobenzoxy-L-glutaminylglycine (CBZ-Gln-Gly) was investigated [modified method of Grossowicz et al., J. Biol. Chem., 187, 111 -125 (1950)].
25 μl (0-10 μM) of inhibitor were added to 25 μl (5.0 U/ml) of guinea pig liver transglutaminase (Sigma) and incubated at 25° C. for 15 min. Then 100 μl of 0.2 M tris-acetate buffer, pH 6.0, with 30 mm CBZ-Gln-Gly, 0.1 M hydroxylamine and 10 mM glutathione were pipetted in. After 10 min at 37° C., the absorption at 492 nm was measured using a microtiter plate reader.

| Compound | Inhibition of tissue transglutaminase at an inhibitor concentration of 0.05 mM ([1]; 0.05 mM inhibitor) [%] | Inhibition of tissue transglutaminase at an inhibitor concentration of 0.5 mM ([1]; 0.5 mM inhibitor) [%] | Inhibition of tissue transglutaminase at an inhibitor concentration of 5 mM ([1]; 5 mM inhibitor) [%] | other results |
| --- | --- | --- | --- | --- |
| CCOC(=O)CNC(=O)[C@H](COC=O)NC(=O)OCc1ccccc1 [Carbobenzoxy-β-(O-formyl)-L-serylglycine Ethyl Ester] (Cbz-Ser(For)-Gly-OEt) | 0 | 0 | 0 | – |
| O=CCC[C@H](NC(=O)OCc1ccccc1)C(=O)NCC(=O)O [γ-Aldehyde of carbobenzoxy-L-glutamylglycine] | – | – | – | Inhibition of factor XIIIa (fibrin crosslinking) (factor XIIIa): cannot be inhibited; Inhibitor concentration at which guinea pig liver transglutaminase is inhibited [2]: 1 µM |
| CCOC(=O)CNC(=O)[C@H](COC(=O)CCl)NC(=O)OCc1ccccc1 [Carbobenzoxy-β-(O-chloroacetyl)-L-serylglycine Ethyl Ester] (Cbz-Ser(ClAc)-Gly-OEt) | 2 | 7 | 76 | – |
| CCOC(=O)CNC(=O)[C@H](COC(C)=O)NC(=O)OCc1ccccc1 [Carbobenzoxy-β-(O-acetyl)-L-serylglycine Ethyl Ester] (Cbz-Ser(Ac)-Gly-OEt) | 0 | 0 | 0 | – |
| CC(=O)OC[C@H](NC(=O)OCc1ccccc1)C(=O)NCC(=O)O [Carbobenzoxy-L-serylglycine β-acetate, Carbobenzoxy-L-serylqlycine β-acetate] (Cbz-Ser(Ac)-Gly-OH) | 0 | 0 | 0 | – |
| CC(C)(C)OC(=O)CNC(=O)[C@H](CNC(N)=O)NC(=O)OCc1ccccc1 [Carbobenzoxy-β-(N-carbamoyl)-L-aminoalanylglycine tert-butyl Ester] | 0 | 0 | 0 | – |
| γ-Aldehyde of tert-butyloxycarbonyl-L-glutaminyl-L-glutaminyl-L-isoleucyl-L-valine | – | – | – | Inhibition of factor XIIIa (fibrin crosslinking) (factor XIIIa): effective factor XIIIa inhibitor |
| O=COC[C@H](NC(=O)OCc1ccccc1)C(=O)NCC(=O)O [Carbobenzoxy-L-serylglycine β-formate, Carbobenzoxy-L-serylglycine β-Formate] (Cbz-Ser(For)-Gly-OH) | 0 | 0 | 56 | – |
| O=C(O)CNC(=O)[C@H](COC(=O)CCl)NC(=O)OCc1ccccc1 [Carbobenzoxy-L-serylglycine β-Chloroacetate] (Cbz-Ser(ClAc)-Gly-OH) | 1 | 43 | 91 | – |
| NC(=O)NC[C@H](NC(=O)OCc1ccccc1)C(=O)NCC(=O)O [Carbobenzoxy-β-ureido-L-alanylglycine] | – | – | – | inhibition at 50 µM ([1]; 0.05 mM inhibitor, read-out: Inhibition of tissue transglutaminase at an inhibitor concentration of 0.05 mM): 0%; inhibition at 500 µM ([1]; 0.5 mM inhibitor, read-out: Inhibition of tissue transglutaminase at an inhibitor concentration of 0.5 mM): 0%; inhibition at 5000 µM ([1]; 5 mM inhibitor, read-out: Inhibition of tissue transglutaminase at an inhibitor concentration of 5 mM): 35% |
| Carbobenzoxy-β-(O-carbamoyl)-L-serylglycine Ethyl Ester | 0 | 0 | 0 | – |
